Experimental data from US11896678B2, “Compositions and methods for treatment of peroxisome proliferator-activated receptor gamma (PPARG) activated cancer” (THE BROAD INSTITUTE, INC., priority 2017, dated 2024).
Ends that are not written are not given here.

Legend:
[1] = system: PPARG target gene expression in UM-UC-9 cells; assay: RNA sequencing of UM-UC-9 cells after 7 days dosing; assay type: cell-based, human; details: 500 nmol/L
Description: Next, the effects of long-term dosing on the transcriptional profile of the PPARG-amplified cell line, UMUC-9, were evaluated. Briefly, UM-UC-9 cells were treated for 7 days with various PPARG modulators dosed at 500 nmol/L and gene expression was analyzed using RNA sequencing. […] Genes that were more abundantly expressed upon treatment with inverse-agonists included ALPP, SPINK4, and ALDH1A3 (FIG. 5). […] In summary, the in vitro pharmacological properties of known PPARG modulators have been characterized and two distinct chemotypes with bona-fide inverse-agonist activity in PPARG-activated bladder cancer cells were identified.
RNAseq analysis: RNA was isolated using RNEasy (Qiagen) and an RNAseq library was prepared using NEBNext Ultra Directional RNA Library Prep Kit for Illumina and NEBNext Multiplex Oligos for Illumina (New England BioLabs). RNAseq sequencing was performed using an Illumina MiSeq instrument according to the manufacturers protocol. Sequence data was analyzed using Firehose (Broad Institute, Cambridge MA) to map transcripts and calculate RPKM (SW780 cDNA expression) or TPM (UM-UC-9).
For UM-UC-9 RNAseq experiment, the resulting reads were used to calculate transcript abundance in units of TPM (transcripts per million) (18), which were then adjusted using TMM normalization (19) for comparison. […]

UM-UC-9 cells = assay: Direct cell counting dose-response proliferation assay; assay type: cell-based, human
Description: To determine whether PPARG modulators affect the proliferation and/or viability of PPARG-activated bladder cancer cell lines, a direct cell counting-based assay was performed. This assay likely avoids potential artifacts associated with the use of an ATP content-based assay, given that PPAR modulators are known to regulate cellular metabolic activity. […] These IC50 values align well with the calculated IC50s from both the cell-based reporter gene assay (FIG. 8A) and the biochemical corepressor assay (FIG. 8D).
(§1) Proliferation Assays: To enable cell-counting experiments, cell lines were transduced with a lentiviral vector encoding nuclear-targeted GFP, TagGFP2-H2B (Evrogen), and stable pools generated following selection for puromycin resistance. Cell lines were maintained for at least 7 days following selection prior to expansion and seeding into 96- or 384-well plates for further analysis. For kinetic proliferation assays, 96-well plates (n 1% 4 per condition) were imaged and counted every two hours using IncuCyte Zoom (Essen BioScience). Media and compounds were replaced approximately every 3-4 days. For endpoint assays to measure dose-response, cells were plated in 384-well plates, dosed with compound, and upon reaching approximately 70% to 90% confluence in control wells, cells were either counted using fluorescence imaging (Incu-Cyte Zoom) or incubated with CyQuant (Thermo Fisher) at the indicated time and plates were read with a fluorescent plate reader.

[2] = system: PPARG-activated bladder cancer cell lines; assay: Proliferation assays in PPARG-activated bladder cancer cell lines; assay type: cell-based, human; details: 100 nM-500 nM
Description: A panel of bladder cancer cell lines with PPARG modulators in colony formation assays was then tested (FIG. 10), kinetic proliferation assays (IncuCyte Zoom; Essen Bioscience) using cell lines treated with a single concentration of compound (100 nM-500 nM), and end-point dose-response assays (CellTiter Glo or CyQuant).
This assay was expanded to include an additional 8 representative bladder cancer cell lines, including cell lines with PPARG amplification, RXRA p.S427F mutation, activated gene signature, and control cell lines with low level expression of PPARG and target genes. […] Representative data for the UM-UC-9 cell line are shown in FIG. 6B, and is tabulated for the tested bladder cancer cell lines in Table 1. […] This significant (P<0.01) preferential sensitivity to PPARG inverse-agonists, but not antagonists, is maintained across all of the PPARG-activated cell lines in the panel, including the RXRA p.S427F cell line, HT-1197 (41), the PPARG-amplified cell lines, 5637 and UM-UC-9, and the PPARG activation gene signature cell lines Cal29, UM-UC-1, and RT112/84 (FIG. 12). […] Similar results were obtained with these cell lines in parallel studies using clonogenic assays to quantify colony-forming ability (FIG. 10).
as §1

[3] = system: PPARG-activated pancreatic and colorectal cancer cell lines; assay: Kinetic proliferation assay in pancreatic and colorectal cancer cell lines; assay type: cell-based; details: 500 nM
Excerpt: To enable cell-counting, cell lines were transduced with a lentiviral vector encoding nuclear-targeted GFP (TagGFP2-H2B), and stable pools generated following selection for puromycin-resistance. Cell lines were maintained for at least 7 days following selection prior to expansion and seeding into 96-well plates for further analysis. For kinetic proliferation assays, 96-well plates were imaged in phase-contrast and green fluorescence mode every two hours using IncuCyte Zoom (Essen BioScience, Ann Arbor MI). Using IncuCyte software, the number of fluorescent nuclei were counted to monitor quantitative changes in cell number over time. Media and compounds were replaced approximately every 3-4 days.
DMSO treatment was also included as a vehicle control.

PPARG = target: T1, PPARG (Homo sapiens, UniProt P37231); assay: RT112/84 FABP4-NLucP reporter gene assay, unstimulated; assay type: cell-based
T1 construct: endogenous in cells; host or cells: RT112/84 bladder cancer cells (FABP4-NLucP knock-in clone)
T1 sequence (P37231 1-477 isoform P37231-2): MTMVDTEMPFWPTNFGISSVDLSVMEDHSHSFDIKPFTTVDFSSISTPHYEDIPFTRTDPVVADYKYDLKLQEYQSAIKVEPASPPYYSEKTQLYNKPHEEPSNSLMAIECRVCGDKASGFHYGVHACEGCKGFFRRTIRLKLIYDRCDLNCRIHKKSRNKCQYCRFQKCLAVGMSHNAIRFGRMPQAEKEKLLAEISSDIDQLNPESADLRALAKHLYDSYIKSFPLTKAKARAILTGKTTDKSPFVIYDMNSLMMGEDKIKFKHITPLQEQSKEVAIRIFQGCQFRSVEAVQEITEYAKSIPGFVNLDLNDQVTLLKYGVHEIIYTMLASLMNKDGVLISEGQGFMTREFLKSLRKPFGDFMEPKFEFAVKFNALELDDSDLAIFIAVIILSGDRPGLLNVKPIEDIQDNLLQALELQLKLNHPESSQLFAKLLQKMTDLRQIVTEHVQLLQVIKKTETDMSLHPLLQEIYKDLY
Excerpt: Next, a PPARG reporter cell line was engineered to enable higher throughput assays to evaluate PPARG transactivation. Briefly, a destabilized NanoLuc luciferase reporter gene was inserted into the 3′-UTR of the FABP4 gene in the RT112/84 bladder cancer cell line using CRISPR/Cas9 mediated homology-directed repair (FIG. 4A).
RT112-FABP4-NLucP Reporter Gene Assay: Reporter cell line was generated by engineering NanoLuc gene into the 3′ UTR of FABP4 in RT112/84 cells using CRISPR/Cas9 guided genome engineering. Single cell clones were generated and the clone with the widest dynamic range selected for use. Assays were performed by seeding 384-well plates with ˜10,000 cells per well in MEMalpha containing 10% FBS and dosing compounds at indicated concentration using HP D300 digital dispenser (HP/Tecan). 18-24 hours after dosing with compound, cells were assayed using NanoGlo Luciferase Assay Reagent (Promega Madison, WI) and plates were read using EnVision Multilabel Reader (PerkinElmer Waltham, MA).

[4] = target: T2, PPARG ligand-binding domain - TRAP220/MED1 coactivator peptide (Homo sapiens, UniProt P37231); assay: TR-FRET coactivator assay, TRAP220/MED1 peptide; assay type: biochemical
T2 construct: purchased ThermoFisher Scientific
T2 sequence (P37231 238-503 limits assumed): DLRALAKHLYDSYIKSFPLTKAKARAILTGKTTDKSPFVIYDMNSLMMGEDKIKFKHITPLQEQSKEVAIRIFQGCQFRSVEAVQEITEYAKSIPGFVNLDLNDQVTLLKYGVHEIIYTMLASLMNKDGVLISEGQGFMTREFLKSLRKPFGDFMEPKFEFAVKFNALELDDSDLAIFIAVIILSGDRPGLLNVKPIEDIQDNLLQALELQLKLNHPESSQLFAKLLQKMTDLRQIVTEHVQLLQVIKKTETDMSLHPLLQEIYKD

[5] = target: T3, PPARG ligand-binding domain (Homo sapiens, UniProt P37231); assay: TR-FRET PPARG competition binding assay; details: maximal concentration tested 10 uM
T3 sequence (P37231 238-503 limits assumed): T2 sequence (P37231 238-503 limits assumed)
Description: To evaluate binding affinity, a PPARG competition binding assay that measures displacement of a fluorescent PPARG ligand from the PPARG ligand-binding domain was used.
Biochemical Assays: The LanthaScreen TR-FRET PPAR gamma Competitive Binding Assay and LanthaScreen TR-FRET PPAR gamma Coactivator Assay were obtained from ThermoFisher Scientific. Assays were performed according to the manufacturer's protocol. In order to assay inverse-agonism, the Coactivator assay was modified by the use of fluorescently labeled co-repressor peptides (NCoR1 ID2 peptide, SMRT ID2 peptide) to convert from agonist mode (coactivator recruitment) into inverse-agonist mode (corepressor recruitment).

[6] = target: Terbium-labeled PPARG ligand binding domain (PPARG-LBD) (Macaca mulatta (Rhesus macaque)) (UniProt O18924); assay: TR-FRET corepressor assay, PPARG-LBD and SMRT/NCOR2 peptide; with antagonists GW9662 and SR2595
[7] = target: Terbium-labeled PPARG ligand binding domain (PPARG-LBD) (Macaca mulatta (Rhesus macaque)) (UniProt O18924); assay: TR-FRET corepressor assay, PPARG-LBD and SMRT/NCOR2 peptide; with inverse-agonists T0070907 and SR10221
[8] = target: Terbium-labeled PPARG ligand binding domain (PPARG-LBD) (Macaca mulatta (Rhesus macaque)) (UniProt O18924); assay: TR-FRET corepressor assay, PPARG-LBD and SMRT/NCOR2 peptide; with agonists rosiglitazone, tesaglitazar and GW9129 (so in the source)
[9] = target: Terbium-labeled PPARG ligand binding domain (PPARG-LBD) (Macaca mulatta (Rhesus macaque)) (UniProt O18924); assay: TR-FRET PPARG-NCOR1 interaction assay; with GW9662 (data not shown)
[10] = target: Terbium-labeled PPARG ligand binding domain (PPARG-LBD) (Macaca mulatta (Rhesus macaque)) (UniProt O18924); assay: TR-FRET PPARG-NCOR1 interaction assay; with SR10221 (data not shown)
[11] = target: Terbium-labeled PPARG ligand binding domain (PPARG-LBD) (Macaca mulatta (Rhesus macaque)) (UniProt O18924); assay: TR-FRET PPARG-NCOR1 interaction assay; with T0070907 (data not shown)

Cc1c(C)n(Cc2ccc(-c3ccccc3C(=O)O)cc2)c2ccc(C(=O)N[C@@H](C)c3ccc(C(C)(C)C)cc3)cc12 [SR2595]
hierarchical clustering of gene expression signatures [1]: cluster with vehicle-treated controls
effect on cell proliferation compared with DMSO control (UM-UC-9 cells): no significant effects
sensitivity of cell lines [2]: not sensitive
sensitivity of cell lines [3]: not sensitive

COP(=O)(OC)OC(c1ccc(Cl)cc1)P(=O)(OC)OC (stereo not shown) [SR202, Mifobate]
effect on unstimulated reporter (PPARG): minimal detectable effect
effect in coactivator assay [4]: minimal effect
binding to PPARG LBD, competition with fluorescent ligand [5]: weak activity

CC(C)(c1ccc(OCC2CO2)cc1)c1ccc(OCC2CO2)cc1 (stereo not shown) [BADGE, Bisphenol A diglycidyl ether]
effect on unstimulated reporter (PPARG): minimal detectable effect
effect in coactivator assay [4]: minimal effect
binding to PPARG LBD, competition with fluorescent ligand [5]: weak activity

HASTNMGLEAIIRKALMGKYDQW (also: fluorescein-labeled, site not given here) [fluorescein-labeled SMRT ID2 corepressor peptide (SMRT/NCOR2)]
fold increase in signal [6]: 1.7 fold
fold increase in signal [7]: 3 to 6 fold
decrease in signal [8]: 50 to 60%

DPASNLGLEDIIRKALMGSFDDK (also: fluorescently labeled, site not given here) [fluorescently labeled NCoR1 ID2 corepressor peptide (NCoR/NCOR1)]
fold induction of signal [9]: 2.5 fold
fold induction of signal [10]: < 2 fold
fold induction of signal [11]: 6 to 8 fold
